Our source for the IC50 values is patent US10703764B2, “Benzopiperazine compositions as BET bromodomain inhibitors” (FORMA Therapeutics, Inc., priority 2013, dated 2020).

Experiment [1] concerns the target T1, BRD4 BD2 (Homo sapiens, UniProt O60885).
T1 construct: made in house
Kind of experiment: AlphaScreen binding assay, BRD4 Bromodomain 2. A digest of the protocol: (§1)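 An AlphaScreen competition format was used with His-BRD4 BD1 or BD2 and biotin-H4 K5/8/12/16-acetyl peptide, each at matched final levels of 50 nM (BD1) or 100 nM (BD2). Incubation in HEPES/NaCl buffer with 0.1% BSA and 0.01% Triton X-100 ran ≥1 h before IC50 determination.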
(Bead proximity is the source of the signal in Alpha formats.)

Experiment [2] concerns MV4-11 cells. The experiment is described as follows: Oncology cell growth assay (3-day proliferation, CellTiter-Glo). The format is cell-based. The settings on record: Homo sapiens, MV4-11, 72 h, AML cell line MV4-11, 72 hours, compounds grouped by IC50 range, read-out: MV4-11 IC50 (inhibition of proliferation, gIC50). A digest of the protocol:
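Luminescence from CellTiter-Glo served as the growth read-out after MV4-11 cells (3000/well) were cultured with compound for 72 hours. Final concentrations spanned 10 to 0.0045 μM in 3-fold steps. gIC50 values were derived by four-parameter logistic fitting relative to DMSO and cell-free controls.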
(In general: In ATP-based viability assays light output follows the ATP content of the culture.)

For experiment [3], the target named is T2, BRD4 BD1 (Homo sapiens, UniProt O60885).
T2 construct: made in house
The experiment is described as follows: AlphaScreen binding assay, BRD4 Bromodomain 1. A digest of the protocol:
as §1

As for `CC(=O)N1c2ccc(-c3ccc4c(c3)CCCN4S(C)(=O)=O)cc2N(C(=O)C2CCC2)C[C@@H]1C` [Example I-1158], the IC50 in experiment [1] is 50 to 500 nM; in experiment [2], > 500 nM; in experiment [3], 100 to 1000 nM.
Turning to `CC(=O)N1c2ccc(-c3cnn(C4COC4)c3)cc2N(C(=O)OCC(F)(F)F)C[C@@H]1C` [Example I-71, (S)-2,2,2-trifluoroethyl 4-acetyl-3-methyl-7-(1-(oxetan-3-yl)-1H-pyrazol-4-yl)-3,4-dihydroquinoxaline-1(2H)-carboxylate], the figures for the IC50 in experiment [1], in experiment [2] and in experiment [3] were < 50 nM, 100 to 500 nM and < 100 nM, respectively.
Take `CC(=O)N1c2ccc(-c3cnn(C4CC4)c3)cc2N(C(=O)Oc2ccccc2Cl)C[C@@H]1C` [Example I-257]: the IC50 in experiment [1] was < 50 nM; in experiment [2], 100 to 500 nM; in experiment [3], 100 to 1000 nM.
Regarding `CC(=O)N1c2ccc(-c3cnn(Cc4cc(C)no4)c3)cc2N(C(=O)C2CC2)C[C@@H]1C` [Example I-149, (S)-1-(4-(cyclopropanecarbonyl)-2-methyl-6-(1-((3-methylisoxazol-5-yl)methyl)-1H-pyrazol-4-yl)-3,4-dihydroquinoxalin-1 (2H)-yl)ethanone], the IC50 in experiment [1] fell in the range of 50 to 500 nM; in experiment [2] it was 100 to 500 nM; in experiment [3] it was 100 to 1000 nM.
In the case of `CC(=O)N1c2ccc(-c3ccc(N4CCCS4(=O)=O)c(F)c3)cc2N(C(=O)C2CCC2)C[C@@H]1C` [Example I-1154], the figures for the IC50 in experiment [1], in experiment [2] and in experiment [3] were 50 to 500 nM, > 500 nM and 1000 to 10000 nM, respectively.
As to `CNS(=O)(=O)c1cccc(-c2ccc3c(c2)N(C(=O)C2CCC2)C[C@H](C)N3C(C)=O)c1` [Example I-1105], the IC50 was 50 to 500 nM in experiment [1], > 500 nM in experiment [2] and 1000 to 10000 nM in experiment [3].
Taken in the same sequence, the figures for `CC(=O)N1c2ccc(-c3cnn(Cc4cncs4)c3)cc2N(C(=O)OC(C)C)C[C@@H]1C` [Example I-143, (S)-isopropyl 4-acetyl-3-methyl-7-(1-(thiazol-5-ylmethyl)-1H-pyrazol-4-yl)-3,4-dihydroquinoxaline-1(2H)-carboxylate] were 50 to 500 nM, 100 to 500 nM and 100 to 1000 nM.
As for `CNC(=O)N1c2ccc(-c3ccc(S(C)(=O)=O)cc3)cc2N(C(=O)c2ccco2)C[C@@H]1C` [Example I-988], the IC50 was 50 to 500 nM in experiment [1], > 500 nM in experiment [2] and 1000 to 10000 nM in experiment [3].
Taken in the same sequence, the figures for `COc1ncc(Cl)cc1OC(=O)N1C[C@H](C)N(C(C)=O)c2ccc(-c3cnn(C4CC4)c3)cc21` [Example I-1207] were 50 to 500 nM, > 500 nM and 100 to 1000 nM.
Turning to `CC(=O)N1c2ccc(-c3ccc4c(c3)CCN4S(C)(=O)=O)cc2N(C(=O)Oc2ccc(F)cc2)C[C@@H]1C` [Example I-1026], the values for the IC50 in experiment [1], in experiment [2] and in experiment [3] were 50 to 500 nM, 100 to 500 nM and 100 to 1000 nM, respectively.
Taken in the same sequence, the figures for `CC(=O)N1c2ccc(-c3ccc(N)nc3)cc2N(C(=O)c2ccco2)C[C@@H]1C` [Example I-295] were < 50 nM, 100 to 500 nM and 1000 to 10000 nM.
For `CC(=O)N1c2ccc(-c3cn[nH]c3)cc2N(C(=O)OC2CCCC2)C[C@@H]1C` [Example I-20, (S)-cyclopentyl 4-acetyl-3-methyl-7-(1H-pyrazol-4-yl)-3,4-dihydro-quinoxaline-1(2H)-carboxylate], the IC50 was 50 to 500 nM in experiment [1], 100 to 500 nM in experiment [2] and < 100 nM in experiment [3].
As for `CC(=O)N1c2ccc(-c3cnn(C4CC4)c3)cc2N(c2nn(C)c3ccccc23)C[C@@H]1C` [Example I-52, (S)-1-(6-(1-cyclopropyl-1H-pyrazol-4-yl)-2-methyl-4-(1-methyl-1H-indazol-3-yl)-3,4-dihydroquinoxalin-1(2H)-yl)ethanone], the IC50 in experiment [1] was < 50 nM; in experiment [2], < 100 nM; in experiment [3] it was 100 to 1000 nM.
With `CC(=O)N1c2ccc(-c3ccc(S(C)(=O)=O)cc3)cc2N(C(=O)OC2CCC2)C[C@@H]1C` [Example I-493], the IC50 in experiment [1] was 50 to 500 nM; in experiment [2], 100 to 500 nM; in experiment [3], 100 to 1000 nM.
Turning to `COc1ccc(-c2ccc3c(c2)N(C(=O)OC2CCOCC2)C[C@H](C)N3C(C)=O)cc1NS(C)(=O)=O` [Example I-1272], the results for the IC50 in experiment [1], in experiment [2] and in experiment [3] were 50 to 500 nM, 100 to 500 nM and 100 to 1000 nM, respectively.
Take `C[C@H]1CN(C(=O)OC2CCOCC2)c2cc(-c3cnn(C4CC4)c3)ccc2N1C(=O)C1CC1` [Example I-1001]: the values for the IC50 in experiment [1], in experiment [2] and in experiment [3] were 50 to 500 nM, 100 to 500 nM and 100 to 1000 nM, respectively.
In the same order, the values of `CC(=O)N1c2ccc(-c3cnn(C4COC4)c3)cc2N(c2nn(C)c3ccccc23)C[C@@H]1C` [Example I-53, (S)-1-(2-methyl-4-(1-methyl-1H-indazol-3-yl)-6-(1-(oxetan-3-yl)-1H-pyrazol-4-yl)-3,4-dihydroquinoxalin-1(2H)-yl)ethanone] are < 50 nM, 100 to 500 nM and 100 to 1000 nM.
Taken in the same sequence, the figures for `CC(=O)N1c2ccc(-c3ccc(C(=O)N4CCCCC4)cc3)cc2N(C(=O)OC(C)C)C[C@@H]1C` [Example I-537] were 50 to 500 nM, 100 to 500 nM and 100 to 1000 nM.
`CC(=O)N1c2ccc(-c3cccc(C(=O)N(C)C)c3)cc2N(C(=O)c2ccco2)C[C@@H]1C` [Example I-848]: the IC50 was < 50 nM in experiment [1], 100 to 500 nM in experiment [2] and 100 to 1000 nM in experiment [3].
Regarding `CCOC(=O)N1C[C@H](C)N(C(C)=O)c2ccc(-c3cccc(S(N)(=O)=O)c3)cc21` [Example I-1041], the figures for the IC50 in experiment [1], in experiment [2] and in experiment [3] were 50 to 500 nM, 100 to 500 nM and 1000 to 10000 nM, respectively.
Regarding `CC(=O)N1c2ccc(-c3ccc(S(=O)(=O)N(C)C)cc3)cc2N(C(=O)OC(C)C)C[C@@H]1C` [Example I-1126], the figures for the IC50 in experiment [1], in experiment [2] and in experiment [3] were 50 to 500 nM, 100 to 500 nM and 1000 to 10000 nM, respectively.
Taken in the same sequence, the figures for `CC(=O)N1c2ccc(-c3ccc(C(=O)N4CCN(C)CC4)cc3)cc2N(C(=O)OC(C)C)C[C@@H]1C` [Example I-544] were 50 to 500 nM, 100 to 500 nM and 100 to 1000 nM.
Taken in the same sequence, the figures for `CC(=O)N1c2ccc(-c3ccc4c(c3)OCO4)cc2N(C(=O)c2ccco2)C[C@@H]1C` [Example I-806] were 50 to 500 nM, 100 to 500 nM and 1000 to 10000 nM.
Turning to `CC(=O)N1c2ccc(-c3cnn(C4CC4)c3)cc2N(C(=O)OC2CCC(F)(F)CC2)C[C@@H]1C` [Example I-33, (S)-4,4-difluorocyclohexyl 4-acetyl-7-(1-cyclopropyl-1H-pyrazol-4-yl)-3-methyl-3,4-dihydroquinoxaline-1(2H)-carboxylate], the figures for the IC50 in experiment [1], in experiment [2] and in experiment [3] were 50 to 500 nM, 100 to 500 nM and 100 to 1000 nM, respectively.
Take `CC(=O)N1c2ccc(-c3cccc(S(C)(=O)=O)c3)cc2N(C(=O)C2CC2)C[C@@H]1C` [Example I-1050]: the IC50 was 50 to 500 nM in experiment [1], > 500 nM in experiment [2] and 1000 to 10000 nM in experiment [3].
Taken in the same sequence, the figures for `CC(=O)N1c2ccc(-c3cccc(S(=O)(=O)N(C)C)c3)cc2N(C(=O)C2CC2)C[C@@H]1C` [Example I-1046] were 50 to 500 nM, > 500 nM and 1000 to 10000 nM.
